Measurements as given in article PMC4059246 (Journal of Medicinal Chemistry, 2014).
Where two headings read alike, the source gives them in different places.

Assays:
U2OS cells = assay: Cell viability, WST-1 assay; conditions: U2OS cells, 0, 0.5, 5 μM, 48 h, WST-1 (Figure 5)
[1] = Human liver microsomal stability assay; conditions: for In vitro stability compared with compound 2: human liver microsomes
NCI60 cancer cell lines = conditions: cited from earlier work
RPA194 [2] = assay: Western blotting for RPA194 in U2OS cell lysates; assay type: cell-based
NCL [3] = assay: Western blotting for NCL in U2OS cell lysates; conditions: U2OS cells, 0, 0.1, 1, 10 μM, 3 h (Figure 4)
[4] = after 25 mg/kg ip dose; cited from earlier work
tumor burden = conditions: mouse xenograft assays; cited from earlier work
NCL [5] = conditions: U2OS cells, 0.5 μM, 3 h (Figure 2B)
RPA194 [6] = conditions: for Effect on expression of RPA194: U2OS cells, 0.5 μM, 3 h, representative images (Figure 2A)
[7] = U2OS cells, 0, 0.1, 1, 10 μM, 3 h (Figure 4)
[8] = RPA194 and NCL assays in U2OS cells

CN(C)CCNC(=O)c1cccn2c(=O)c3cc4ccccc4cc3nc12 [Compound 2, N-[2-(Dimethylamino)ethyl]-12-oxo-12H-benzo[g]pyrido[2,1-b]quinazoline-4-carboxamide]
Effect on cell viability (U2OS cells): profound loss of cell viability
Major metabolites ([1]; identification of the major metabolites, method not described): N-dealkylation as one of several major metabolites
Anticancer activity (NCI60 cancer cell lines): broad and potent anticancer activity
Degradation of RPA194 by Western blotting (RPA194 [2]; [7]): caused degradation of RPA194
Expression of NCL by Western blotting (NCL [3]): largely unaffected except at very high (10 μM) concentrations
half-life [4]: 2.5 h
Tumor burden (tumor burden): reduced tumor burden

O=C(NCCN1CCCCC1)c1cccn2c(=O)c3cc4ccccc4cc3nc12 [Compound 8, 12-Oxo-N-[2-(1-piperidyl)ethyl]-12H-benzo[g]pyrido[2,1-b]quinazoline-4-carboxamide]
Effect on cell viability (U2OS cells): profound loss of cell viability
In vitro stability compared with compound 2 [1]: did not improve stability
Degradation of RPA194 by Western blotting (RPA194 [2]; [7]): caused degradation of RPA194
Effect on nucleolar localization of NCL (NCL [5]): decreased the nucleolar localization of NCL

O=C(NCCN1CCCC1)c1cccn2c(=O)c3cc4ccccc4cc3nc12 [Compound 9, 12-Oxo-N-(2-pyrrolidin-1-ylethyl)-12H-benzo[g]pyrido[2,1-b]quinazoline-4-carboxamide]
Effect on expression of RPA194 (RPA194 [6]): almost complete loss of expression of RPA194
Effect on cell viability (U2OS cells): profound loss of cell viability
In vitro stability compared with compound 2 [1]: did not improve stability
Effect on nucleolar localization of NCL (NCL [5]): decreased the nucleolar localization of NCL

CCN(CC)CCNC(=O)c1cccn2c(=O)c3cc4ccccc4cc3nc12 [Compound 10, N-[2-(Diethylamino)ethyl]-12-oxo-12H-benzo[g]pyrido[2,1-b]quinazoline-4-carboxamide]
In vitro stability compared with compound 2 [1]: did not improve stability
Effect on nucleolar localization of NCL (NCL [5]): decreased the nucleolar localization of NCL

CC(CN(C)C)NC(=O)c1cccn2c(=O)c3cc4ccccc4cc3nc12 (centres unmarked) [Compound 11, N-[2-(Dimethylamino)-1-methylethyl]-12-oxo-12H-benzo[g]pyrido[2,1-b]quinazoline-4-carboxamide]
Degradation of RPA194 by Western blotting (RPA194 [2]; [7]): caused degradation of RPA194
Effect on nucleolar localization of NCL (NCL [5]): decreased the nucleolar localization of NCL

O=C(NC1CNC1)c1cccn2c(=O)c3cc4ccccc4cc3nc12 [Compound 12, N-(Azetidin-3-yl)-12-oxo-12H-benzo[g]pyrido[2,1-b]quinazoline-4-carboxamide]
Effect on nucleolar localization of NCL (NCL [5]): decreased the nucleolar localization of NCL

CC(CNC(=O)c1cccn2c(=O)c3cc4ccccc4cc3nc12)N(C)C (centres unmarked) [Compound 13, N-[2-(Dimethylamino)propyl]-12-oxo-12H-benzo[g]pyrido[2,1-b]quinazoline-4-carboxamide]
Effect on expression of RPA194 (RPA194 [6]): almost complete loss of expression of RPA194
Effect on cell viability (U2OS cells): profound loss of cell viability
Effect on nucleolar localization of NCL (NCL [5]): decreased the nucleolar localization of NCL

CN(C)CCCCNC(=O)c1cccn2c(=O)c3cc4ccccc4cc3nc12 [Compound 14, N-[4-(Dimethylamino)butyl]-12-oxo-12H-benzo[g]pyrido[2,1-b]quinazoline-4-carboxamide]
Effect on cell viability (U2OS cells): little or no activity
Degradation of RPA194 by Western blotting (RPA194 [2]; [7]): less potent

CN(C)CCNC(=O)c1cccn2c(=O)c3ccccc3nc12 [Compound 15, N-[2-(Dimethylamino)ethyl]-11-oxopyrido[2,1-b]quinazoline-6-carboxamide]
Decrease in potency relative to compound 2 (RPA194 [6]): over 40 fold
Effect on expression of RPA194 (RPA194 [6]): no effect
Effect on cell viability (U2OS cells): little or no activity
Degradation of RPA194 by Western blotting (RPA194 [2]; [7]): less potent

CCN(CC)CCNC(=O)c1cccn2c(=O)c3ccccc3nc12 [Compound 16, N-[2-(Diethylamino)ethyl]-11-oxopyrido[2,1-b]quinazoline-6-carboxamide]
Decrease in potency relative to compound 2 (RPA194 [6]; RPA194/NCL assays in U2OS cells, versus compound 2): over 40 fold

CN(C)CCOC(=O)c1cccn2c(=O)c3cc4ccccc4cc3nc12 [Compound 17, 2-(Dimethylamino)ethyl 12-Oxo-12H-benzo[g]pyrido[2,1-b]quinazoline-4-carboxylate]
Biological activity (in words) (RPA194 [6]; [8]): significant loss in potency

CN(C)CCN(C)C(=O)c1cccn2c(=O)c3cc4ccccc4cc3nc12 [Compound 18, N-[2-(Dimethylamino)ethyl]-N-methyl-12-oxo-12H-benzo[g]pyrido[2,1-b]quinazoline-4-carboxamide]
Effect on cell viability (U2OS cells): little or no activity
Degradation of RPA194 by Western blotting (RPA194 [2]): inactive

CC(C)N1CCN(C(=O)c2cccn3c(=O)c4cc5ccccc5cc4nc23)CC1 [Compound 31, 4-(4-Isopropylpiperazine-1-carbonyl)-12H-benzo[g]pyrido[2,1-b]quinazoline-12-one]
Biological activity (in words) (RPA194 [6]): inactive

CN(C)[C@H]1CCN(C(=O)c2cccn3c(=O)c4cc5ccccc5cc4nc23)C1 [Compound 33, 4-[(3S)-3-(Dimethylamino)pyrrolidine-1-carbonyl]-12H-benzo[g]pyrido[2,1-b]quinazoline-12-one]
Biological activity (in words) (RPA194 [6]; [8]): inactive

CCN(CC)C1CCN(C(=O)c2cccn3c(=O)c4cc5ccccc5cc4nc23)C1 (centres unmarked) [Compound 34, 4-[3-(Diethylamino)pyrrolidine-1-carbonyl]-12H-benzo[g]pyrido[2,1-b]quinazoline-12-one]
Biological activity (in words) (RPA194 [6]; [8]): inactive

O=C(NCCN1CCOCC1)c1cccn2c(=O)c3cc4ccccc4cc3nc12 [Compound 36, N-(2-Morpholinoethyl)-12-oxo-12H-benzo[g]pyrido[2,1-b]quinazoline-4-carboxamide]
Effect on cell viability (U2OS cells): little or no activity
Degradation of RPA194 by Western blotting (RPA194 [2]; [7]): less potent
